# Laboratory results from patent US10988474B2, “Compounds acting at multiple prostaglandin receptors giving a general anti-inflammatory response” (ALLERGAN, INC., priority 2011, dated 2021).
# Legend:
# Type in all cases: cell-based
# [1] = target: T1, human prostanoid FP receptor (Homo sapiens, UniProt P43088); test: FLIPR Ca2+ signaling PG antagonist assay, FP stable cell line; details: HEK-293 EBNA cells, human recombinant FP, no exogenous G-protein; standard agonist 17-phenyl-PGF2α
# T1 construct: expressed in transfected cells
# Experimental: (§1) The above compounds were tested for PG antagonist activity as follows using human recombinant prostanoid receptor (DP1, EP1-4, FP, IP and TP) stable cell lines: In order to measure the response of Gs and Gi coupled prostanoid receptors as a Ca^2+ signal, chimeric G protein cDNAs were used. Stable cell lines over-expressing human prostanoid DP1, EP1-4, FP, IP, and TP receptors were established as follows:
# (§2) Briefly, human prostanoid DP1, EP2, and EP4 receptor cDNAs were co-transfected with chimeric Gqs cDNA containing a haemagglutanin (HA) epitope; human prostanoid EP3 receptors were co-transfected with chimeric Gqi-HA; human EP1, FP, IP, and TP receptor cDNAs were expressed with no exogenous G-proteins. Gqs and Gqi chimeric cDNAs (Molecular Devices, Sunnyvale, Calif., U.S.A.), as well as cDNAs of prostanoid receptors, were cloned into a pCEP4 vector with a hygromycin B selection marker. Transfection into HEK-293 EBNA (Epstein-Barr virus nuclear antigen) cells was achieved by the FuGENE 6 transfection Reagent (Roche Applied Science, Indianapolis, Ind., USA). Stable transfectants were selected according to hygromycin resistance. Because Gqs and Gqi contained an HA epitope, G-protein expression was detected by Western blotting analysis using anti-mouse HA monoclonal antibody and horseradish peroxidase (HRP)-conjugated secondary antibody, while functional expression of prostanoid receptors was detected by FLIPR screening (Matias et al., 2004). These stable cell lines were validated using previously published antagonists at 10 μM against serial dilutions of standard agonists by FLIPR functional assays for Ca^2+ Signaling (as described below).
# (§3) Ca^2+ signaling studies were performed using a FLIPR TETRA system (Molecular Devices, Sunnyvale, Calif., USA) in the 384-format. This is a high-throughput instrument for cell-based assays to monitor Ca^2+ signaling associated with GPCRs and ion channels. Cells were seeded at a density of 5×10^4 cells/well in BioCoat poly-D-lysine coated, black wall, clear bottom 384-well plates (BD Biosciences, Franklin lakes, NJ, USA) and allowed to attach overnight in an incubator at 37° C. The cells were then washed twice with HBSS-HEPES buffer (Hanks' balanced salt solution without bicarbonate and phenol red, 20 mM HEPES, pH 7.4) using an ELx405 Select CW Microplate Washer (BioTek, Winooski, Vt., USA). After 60 min of dye-loading in the dark using the Ca^2+-sensitive dye Fluo-4AM (Invitrogen, Carlsbad, Calif., USA), at a final concentration of 2×10^−6M, the plates were washed 4 times with HBSS-HEPES buffer to remove excess dye and leaving 50 μl of buffer in each well. The plates were then placed in the FLIPR TETRA instrument and allowed to equilibrate at 37° C. Compounds were added in a 25 μl volume to each well to give final concentrations of 0.1 μM, 0.3 μM, 1 μM, 3 μM, 10 μM, and 30 μM; or 0.067 μM, 0.1 μM, 0.2 μM, 0.3 μM, 0.67 μM, and 1 μM for cells over-expressing TP receptors. After 4.5 minutes, a 7-point serial dilution of the standard agonist for the corresponding receptor, in a 25 μl volume was injected at the final concentrations from 10^−11M to 10^−5M in 10-fold serial dilution increments for cells expressing human recombinant DP1, EP1, EP2, EP3, EP4, FP, and IP receptors. The dose range for the standard agonist for human recombinant TP receptors was from 10^−12M to 10^−6M. HBSS-HEPES buffer was used as the negative control for the standard agonists. Cells were excited with LED (light emitting diode) excitation at 470-495 nm and emission was measured through an emission filter at 515-575 nm. Assay plates were read for 3.5 minutes using the FLIPR^TETRA. The peak increase in fluorescence intensity was recorded for each well. On each plate, negative controls, dose response of positive controls, and co-treatments of antagonist-agonist for each dose were in triplicates. Standard agonists were as follows: DP=BW 245C, EP1-EP4=PGE2, FP=17-phenyl-PGF2α, IP=Cicaprost, and TP=U-46619. […]
# [2] = target: T2, human prostanoid DP1 receptor (Homo sapiens, UniProt Q13258); test: FLIPR Ca2+ signaling PG antagonist assay, DP1 stable cell line; details: HEK-293 EBNA cells, human recombinant DP1 with chimeric Gqs; standard agonist BW 245C; read-out: DP (Kb, PG antagonist activity)
# T2 construct: expressed in transfected cells
# T2 sequence (Q13258 1-359): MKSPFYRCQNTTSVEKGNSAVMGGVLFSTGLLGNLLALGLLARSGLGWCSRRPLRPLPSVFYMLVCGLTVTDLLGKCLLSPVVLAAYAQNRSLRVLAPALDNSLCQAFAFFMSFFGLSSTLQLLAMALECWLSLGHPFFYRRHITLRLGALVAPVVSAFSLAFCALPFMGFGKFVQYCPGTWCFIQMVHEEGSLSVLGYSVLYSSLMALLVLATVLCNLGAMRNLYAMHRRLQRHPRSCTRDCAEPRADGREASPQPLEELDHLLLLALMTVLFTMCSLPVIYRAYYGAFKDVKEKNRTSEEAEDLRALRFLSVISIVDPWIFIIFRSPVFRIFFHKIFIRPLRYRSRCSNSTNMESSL
# Experimental: as §1, §2, §3
# [3] = target: T3, human prostanoid EP1 receptor (Homo sapiens, UniProt P34995); test: FLIPR Ca2+ signaling PG antagonist assay, EP1 stable cell line; details: HEK-293 EBNA cells, human recombinant EP1, no exogenous G-protein; standard agonist PGE2
# T3 construct: expressed in transfected cells
# T3 sequence (P34995 1-402): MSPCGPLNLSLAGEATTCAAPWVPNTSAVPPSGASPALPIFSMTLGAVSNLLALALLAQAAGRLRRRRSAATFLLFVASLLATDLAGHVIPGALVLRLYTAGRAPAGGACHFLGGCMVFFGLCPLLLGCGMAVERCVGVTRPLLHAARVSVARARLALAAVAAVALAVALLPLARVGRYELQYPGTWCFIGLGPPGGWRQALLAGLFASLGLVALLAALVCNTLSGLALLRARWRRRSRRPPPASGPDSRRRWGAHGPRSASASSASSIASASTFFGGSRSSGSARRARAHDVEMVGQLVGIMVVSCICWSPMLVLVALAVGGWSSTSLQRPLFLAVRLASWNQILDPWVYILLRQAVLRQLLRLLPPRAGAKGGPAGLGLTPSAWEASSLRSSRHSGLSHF
# Experimental: as §1, §2, §3
# [4] = target: T4, human prostanoid EP2 receptor (Homo sapiens, UniProt P43116); test: FLIPR Ca2+ signaling PG antagonist assay, EP2 stable cell line; details: HEK-293 EBNA cells, human recombinant EP2 with chimeric Gqs; standard agonist PGE2
# T4 construct: expressed in transfected cells
# Experimental: as §1, §2, §3
# [5] = target: T5, human prostanoid EP4 receptor (Homo sapiens, UniProt P35408); test: FLIPR Ca2+ signaling PG antagonist assay, EP4 stable cell line; details: HEK-293 EBNA cells, human recombinant EP4 with chimeric Gqs; standard agonist PGE2
# T5 construct: expressed in transfected cells
# Experimental: as §1, §2, §3
# T4 sequence (P43116 whole entry): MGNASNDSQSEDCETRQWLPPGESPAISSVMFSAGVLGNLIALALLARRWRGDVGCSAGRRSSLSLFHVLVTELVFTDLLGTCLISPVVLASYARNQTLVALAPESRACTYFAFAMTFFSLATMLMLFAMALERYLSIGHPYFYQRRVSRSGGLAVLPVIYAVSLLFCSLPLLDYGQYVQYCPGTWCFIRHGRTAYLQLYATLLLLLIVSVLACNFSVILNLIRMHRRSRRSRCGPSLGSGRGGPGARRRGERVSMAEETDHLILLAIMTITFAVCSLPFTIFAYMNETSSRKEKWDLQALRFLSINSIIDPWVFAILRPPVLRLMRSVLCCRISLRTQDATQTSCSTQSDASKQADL
# T5 sequence (P35408 whole entry): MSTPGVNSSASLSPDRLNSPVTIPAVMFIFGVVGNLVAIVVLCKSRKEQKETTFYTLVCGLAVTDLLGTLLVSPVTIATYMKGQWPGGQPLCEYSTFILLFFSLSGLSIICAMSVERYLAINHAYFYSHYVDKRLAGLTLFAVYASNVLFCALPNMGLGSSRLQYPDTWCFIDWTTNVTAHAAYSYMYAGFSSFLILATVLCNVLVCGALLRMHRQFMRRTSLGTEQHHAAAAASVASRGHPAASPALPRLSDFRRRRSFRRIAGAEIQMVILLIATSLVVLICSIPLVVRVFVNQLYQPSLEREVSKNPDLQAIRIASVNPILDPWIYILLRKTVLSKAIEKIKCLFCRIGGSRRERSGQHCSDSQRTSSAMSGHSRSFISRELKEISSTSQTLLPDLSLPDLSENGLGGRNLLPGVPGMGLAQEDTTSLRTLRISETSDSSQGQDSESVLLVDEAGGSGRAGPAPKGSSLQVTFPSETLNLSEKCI
# T1 sequence (P43088 whole entry): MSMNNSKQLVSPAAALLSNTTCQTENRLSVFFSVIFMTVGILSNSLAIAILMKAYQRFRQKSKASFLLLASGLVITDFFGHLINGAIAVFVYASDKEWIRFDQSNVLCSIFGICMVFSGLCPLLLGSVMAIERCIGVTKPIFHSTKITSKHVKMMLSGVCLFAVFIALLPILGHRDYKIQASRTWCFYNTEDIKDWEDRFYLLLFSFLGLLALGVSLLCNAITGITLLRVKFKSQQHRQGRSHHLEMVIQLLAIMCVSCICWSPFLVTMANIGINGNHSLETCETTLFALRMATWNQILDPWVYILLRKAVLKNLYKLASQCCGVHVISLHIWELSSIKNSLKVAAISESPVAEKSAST
Compound,Kb [1] [nM],Kb [2] [nM],Kb [3] [nM],Kb [4] [nM],Kb [5] [nM]
"CCC(CC)COc1ccc(Cl)cc1Cn1ccc2cc(C(=O)O)ccc21 [Example 1, 1-[5-Chloro-2-(2-Ethyl-Butoxy)-Benzyl]-1H-Indole-5-Carboxylic Acid]",560,2100,180,8700,70
"CCC(CC)COc1ccc(Cl)cc1Cn1ncc2cc(C(=O)O)ccc21 [Example 2, 1-[5-Chloro-2-(2-Ethyl-Butoxy)-Benzyl]-1H-Indazole-5-Carboxylic ACID]",160,1300,140,2900,20
CC(C)COc1ccc(Br)cc1Cn1ncc2cc(C(=O)O)ccc21 [Example 4],20,700,6,1800,25
CCC(CC)COc1ccc(Cl)cc1Cn1ncc2ccc(C(=O)O)cc21 [Example 6],2400,7100,≥ 10000,≥ 10000,≥ 10000
"CC(C)COc1ccc(Br)cc1Cn1ncc2c(C(=O)O)cccc21 [Example 7, 1-(5-Bromo-2-Isobutoxy-Benzyl)-1H-Indazole-4-Carboxylic Acid]",300,1900,45,4400,1800
"O=C(O)c1ccc2c(cnn2Cc2cc(Cl)ccc2OCc2ccccc2)c1 [Example 8, 1-(2-Benzyloxy-5-Chloro-Benzyl)-1H-Indazole-5-Carboxylic Acid]",200,2600,220,5000,1300
"O=C(O)c1ccc2c(cnn2Cc2cc(Cl)ccc2OCc2ccc(Cl)cc2)c1 [Example 9, 1-[5-Chloro-2-(4-Chloro-Benzyloxy)-Benzyl]-1H-Indazole-5-Carboxylic Acid]",20,1200,90,3200,3000
"O=C(O)c1ccc2c(cnn2Cc2cc(Cl)ccc2OCC2CCCC2)c1 [Example 10, 1-(5-Chloro-2-Cyclopentylmethoxy-Benzyl)-1H-Indazole-5-Carboxylic Acid]",30,440,50,500,20
"O=C(O)c1ccc2c(cnn2Cc2cc(Cl)ccc2OCC2CC2)c1 [Example 11, 1-(5-Chloro-2-Cyclopropylmethoxy-Benzyl)-1H-Indazole-5-Carboxylic Acid]",120,900,120,2000,110
"O=C(O)c1ccc2c(cnn2Cc2cc(Br)ccc2OCc2ccccc2)c1 [Example 12, 1-(2-Benzyloxy-5-Bromo-Benzyl)-1H-Indazole-5-Carboxylic Acid]",120,1600,360,7900,1150
"O=C(O)c1ccc2c(cnn2Cc2cc(Br)ccc2OCc2ccc(Cl)cc2)c1 [Example 13, 1-[5-Bromo-2-(4-Chloro-Benzyloxy)-Benzyl]-1H-Indazole-5-Carboxylic Acid]",20,1200,50,1900,2700
"O=C(O)c1ccc2c(cnn2Cc2cc(Br)ccc2OCC2CCCC2)c1 [Example 14, 1-(5-Bromo-2-Cyclopentylmethoxy-Benzyl)-1H-Indazole-5-Carboxylic Acid]",30,600,20,400,15
"O=C(O)c1ccc2c(cnn2Cc2cc(Br)ccc2OCC2CC2)c1 [Example 15, 1-(5-Bromo-2-Cyclopropylmethoxy-Benzyl)-1H-Indazole-5-Carboxylic Acid]",130,1800,190,3300,200
"CC(C)COc1ccc(Cl)cc1Cn1cc2cc(C(=O)O)ccc2n1 [Example 16, 2-(5-Chloro-2-Isobutoxy-Benzyl)-2H-Indazole-5-Carboxylic Acid]",3000,1500,90,≥ 10000,600
"CC(C)COc1ccc(Br)cc1Cn1cc2cc(C(=O)O)ccc2n1 [Example 17, 2-(5-Bromo-2-Isobutoxy-Benzyl)-2H-Indazole-5-Carboxylic Acid]",2300,3500,40,≥ 10000,600
CC(C)COc1ccc(C(F)(F)F)cc1Cn1ncc2cc(C(=O)O)ccc21 [Example 18],20,1400,40,≥ 10000,60
CC1(COc2ccc(Br)cc2Cn2ncc3cc(C(=O)O)ccc32)CC1 [Example 19],16,1200,12,8800,14
"CC(C)COc1ccc(OC(F)(F)F)cc1Cn1ncc2cc(C(=O)O)ccc21 [Example 20, 1-(2-Isobutoxy-5-Trifluoromethoxy-Benzyl)-1H-Indazole-5-Carboxylic Acid]",13,500,30,≥ 10000,30
"Cc1nn(Cc2cc(Br)ccc2OCC(C)C)c2ccc(C(=O)O)cc12 [Example 21, 1-(5-Bromo-2-Isobutoxy-Benzyl)-3-Methyl-1H-Indazole-5-Carboxylic Acid]",30,100,14,3500,70
